Legend:
[1] = system: Erk1/2 phosphorylation in U373 cells; experiment: Microvesicle transfer assay, Erk1/2 phosphorylation in U373 acceptor cells; type: cell-based, human; conditions: microvesicles preincubated with agent, 24 hours (FIG. 3A, 3B)
Method: (§1) U373 (acceptor) cells are treated with microvesicles for 24 hours and a single-cell suspension is analyzed by flow cytometry or fluorescent microscopy for expression of EGFRvIII or GFP. […] The expression of microvesicle associated molecules (EGFRvIII, TF), and expression of total and activated MAPK and Akt as well as other changes are assayed by immunoblot (BcIxL, p27/Kip1), ELISA (VEGF, R&D Systems), or promoter activity assays (VEGF), as described elsewhere (Lopez-Ocejo et al. 2000, Oncogene, 40:4611-4620): For soft agar colony formation assays single cell suspensions are prepared in 0.3% agarose from equal numbers of cells pretreated with microvesicles or control media. Cultures are established in plates precoated with 0.5% agarose and all colonies containing more than 4 cells are counted.

[2] = system: Akt phosphorylation in U373 cells; experiment: Microvesicle transfer assay, Akt phosphorylation in U373 acceptor cells; type: cell-based, human; conditions: microvesicles preincubated with annexin V (FIG. 3C)
Method: as §1

[3] = system: VEGF promoter activity in U373 cells; experiment: Microvesicle transfer assay, VEGF promoter activity in U373 cells; type: cell-based, human; conditions: microvesicles pretreated with annexin V (FIG. 4B)
Method: as §1

[4] = system: BcIxL and p27/Kip1 expression in U373 cells; experiment: Microvesicle transfer assay, BcIxL and p27/Kip1 expression in U373 cells (immunoblot); type: cell-based, human; conditions: annexin V-mediated blockade of microvesicle uptake
Method: as §1

U373vIII tumours = experiment: Growth of U373vIII subcutaneous tumours in SCID mice under daily CI-1033; type: in vivo
Description: U373 (human astrocytoma) cells, their stable variant U373vIII expressing Tet-off regulated EGFRvIII or EGFRvIII fused at C-terminus to green fluorescent protein (pEGFPN1) cassette (U373vIII-GFP) and A431 are maintained as described previously (Viloria-Petit et at Am. J. Pathology, 1997, 6:1523-1530; Yu et al., 2005, Blood, 105: 1734-1741) in medium containing microvesicle-depleted fetal bovine serum FBS. HUVEC cells are maintained in EGM-2 (Cambrex Bioscience, Walkesville, Md., USA). Microvesicles are collected from conditioned media or mouse plasma, as previously described (Yu & Rak, J. Thromb. Haemost, 2004, 2:2065-67; Al-Nedawi et al., 2005, Arterioscler. Thromb. Vasc. Biol., 25: 1744-1749). Briefly, media are subjected to two successive centrifugations at 300 g and 12000 g to eliminate cells and debris. Microvesicles are pelleted by ultracentrifugation for 2 hours at 100 000 g and quantified by protein content and analyzed for EGFR or EGFRvIII content. For scanning electron microscopy (SEM) the cells are grown on cover slips, fixed with 2.5% gluteraldehyde, stained with 1% OsO4, covered with gold and visualized using the JEOL 840A instrument. For in vivo analyses tumors are generated by injection of 1-10×10^6 U373vIII or U373 cells into immunodeficient (SCID) mice (Charles River, Canada). […]

A431 tumours = experiment: Growth of A431 subcutaneous tumours in mice under daily CI-1033; type: in vivo; conditions: 20 mg/kg intraperitoneally, 7 days (FIG. 13A)
[5] = system: VEGF production by U373 cells; experiment: Microvesicle transfer assay, VEGF production by U373 cells (ELISA); type: cell-based, human; conditions: microvesicles preincubated with CI-1033 (FIG. 4A)
Method: as §1

| Molecule | Erk1/2 phosphorylation induced by U373vIII-derived microvesicles [1] | Akt phosphorylation induced by U373vIII-derived microvesicles [2] | VEGF promoter activity stimulated by EGFRvIII containing microvesicles [3] | Decrease in levels of p27/Kip1 caused by EGFRvIII-containing microvesicles [4] | Increase in expression of BcIxL caused by EGFRvIII-containing microvesicles [4] | Formation/growth of U373vIII subcutaneous tumors (U373vIII tumours; SCID mice, daily doses of CI-1033 (FIG. 1D)) | Tumour response (tumour size) (U373vIII tumours; U373vIII tumours, 20 mg/kg intraperitoneally, daily, 7 days (FIG. 13A)) | Tumour response (tumour size) (A431 tumours) | Release of VEGF induced by U373vIII microvesicles [5] |
| --- | --- | --- | --- | --- | --- | --- | --- | --- | --- |
| annexin V: blocks exposed phosphatidylserine residues of microvesicles and thereby their uptake by U373 cells | abrogated | inhibitable | abrogated | inhibited | inhibited |  |  |  |  |
| C=CC(=O)Nc1cc2c(Nc3ccc(F)c(Cl)c3)ncnc2cc1OCCCN1CCOCC1 [CI-1033] | markedly reduced |  |  |  |  | susceptible to inhibition | responsive | responsive | unable to induce this release of VEGF |

Reference: patent US10352935B2, “Tumor cell-derived microvesicles” (The Hospital for Sick Children, priority 2007, dated 2019)
